According to ChEMBL document CHEMBL1201862, “PubChem BioAssay data set” (2004):
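Interpolation was linear, between the two tested concentrations surrounding the appropriate level; five concentrations were tested over 48 hours in 96-well plates. Abbreviation: GI50, concentration required for 50% inhibition of growth.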 Calls of active or inactive are those of the source. Cut-off read from the data, not from the text of the source: active = GI50 up to about 1.1 µM and inactive = higher.

What was measured:
Assay in all cases: NCI tumour cell line growth inhibition, 48 h
A549 = test system: A549
ACHN = test system: ACHN
CAKI-1 = test system: CAKI-1
HOP-62 = test system: HOP-62
Hs-578T = test system: Hs-578T
K562 = test system: K562
KM12 = test system: KM12
NCI-H226 = test system: NCI-H226
NCI-H460 = test system: NCI-H460
OVCAR-5 = test system: OVCAR-5
RXF 393 = test system: RXF 393
SK-MEL-5 = test system: SK-MEL-5
SK-OV-3 = test system: SK-OV-3
TK-10 = test system: TK-10
U-251 = test system: U-251
UACC-257 = test system: UACC-257
Malme-3M = test system: Malme-3M
SK-MEL-2 = test system: SK-MEL-2
A498 = test system: A498

Measured: GI50

CC1=CC(C/C(C)=C/COc2ccc3ccc(=O)oc3c2)OC1=O (stereo unspecified)
inactive: A549 > 100 µM | ACHN > 100 µM | CAKI-1 > 100 µM | HOP-62 > 100 µM | Hs-578T > 100 µM | K562 59.8 µM | KM12 > 100 µM | NCI-H226 > 100 µM | NCI-H460 > 100 µM | OVCAR-5 > 100 µM | RXF 393 > 100 µM | SK-MEL-5 53.6 µM | SK-OV-3 > 100 µM | TK-10 > 100 µM | U-251 90.4 µM | UACC-257 47.4 µM

Cn1c(=O)cc(N2CCCC2)[nH]c1=O
inactive: A549 > 100 µM | ACHN > 100 µM | CAKI-1 > 100 µM | HOP-62 > 100 µM | K562 > 100 µM | KM12 > 100 µM | Malme-3M > 100 µM | NCI-H226 > 100 µM | NCI-H460 > 100 µM | OVCAR-5 > 100 µM | SK-MEL-2 > 100 µM | SK-MEL-5 > 100 µM | TK-10 > 100 µM | U-251 > 100 µM | UACC-257 > 100 µM

Oc1ccc(-c2nc(-c3cccnc3)c(-c3ccc(F)cc3)[nH]2)cc1
inactive: A549 21.8 µM | ACHN 20.5 µM | CAKI-1 28.6 µM | HOP-62 21.6 µM | Hs-578T 20.9 µM | K562 16 µM | KM12 18.2 µM | Malme-3M 17.5 µM | NCI-H226 21.5 µM | NCI-H460 23.3 µM | OVCAR-5 30.2 µM | RXF 393 17.6 µM | SK-MEL-2 17.9 µM | SK-MEL-5 16.3 µM | SK-OV-3 23.4 µM | TK-10 18.6 µM | U-251 17.3 µM | UACC-257 17.6 µM

CC1=CC(O)CC(C)(C)C1/C=C/C(C)=C/C=C/C(C)=C/C=C/C=C(C)/C=C/C=C(C)/C=C/C1=C(C)CC(O)CC1(C)C (stereo unspecified)
inactive: A549 35.6 µM | ACHN 16.6 µM | CAKI-1 23.2 µM | Hs-578T 80.5 µM | K562 38.3 µM | KM12 38.6 µM | Malme-3M 15.6 µM | NCI-H226 21.4 µM | NCI-H460 32.6 µM | OVCAR-5 34.8 µM | RXF 393 18.5 µM | SK-MEL-2 25 µM | SK-MEL-5 16.6 µM | SK-OV-3 40.8 µM | TK-10 57.8 µM | UACC-257 24.9 µM

COC(=O)c1ccc(/C=C2\Oc3cc(O)ccc3C2=O)cc1
inactive: A549 77.3 µM | ACHN 31.7 µM | CAKI-1 68.5 µM | HOP-62 > 100 µM | Hs-578T 52.4 µM | K562 47.8 µM | KM12 49.3 µM | NCI-H226 55.3 µM | NCI-H460 > 100 µM | RXF 393 27.9 µM | SK-MEL-5 67 µM | SK-OV-3 > 100 µM | TK-10 53 µM | U-251 48.8 µM | UACC-257 > 100 µM

O=C1CCN2C(=Nc3cccc4cccc2c34)N1
inactive: A549 > 100 µM | ACHN > 100 µM | HOP-62 > 100 µM | K562 > 100 µM | NCI-H226 > 100 µM | NCI-H460 > 100 µM | OVCAR-5 > 100 µM | RXF 393 > 100 µM | SK-MEL-5 > 100 µM | SK-OV-3 > 100 µM | TK-10 > 100 µM | U-251 > 100 µM | UACC-257 > 100 µM

O=c1[nH]nc(Nc2ccc(Cl)cc2)c2nnn(-c3ccc([N+](=O)[O-])cc3)c12
inactive: A549 14.5 µM | ACHN 43.3 µM | CAKI-1 39.5 µM | HOP-62 27.4 µM | K562 6.35 µM | KM12 26.4 µM | Malme-3M 26.1 µM | NCI-H226 42.1 µM | NCI-H460 30.6 µM | OVCAR-5 > 100 µM | SK-MEL-2 24.2 µM | SK-MEL-5 10.8 µM | TK-10 24.7 µM | U-251 14.2 µM | UACC-257 34.8 µM

COc1ccc2c(c1)-c1[nH]c3ccc(OC)cc3c1CC2
inactive: A549 14.3 µM | ACHN 19.6 µM | CAKI-1 18.8 µM | HOP-62 16.3 µM | Hs-578T 13.4 µM | K562 8.99 µM | KM12 4.86 µM | Malme-3M 15 µM | NCI-H226 11.8 µM | NCI-H460 16.3 µM | OVCAR-5 14.5 µM | SK-MEL-2 14.5 µM | SK-MEL-5 13.1 µM | SK-OV-3 18.6 µM | TK-10 16.8 µM | U-251 17.3 µM | UACC-257 17.7 µM

NN/C(=N\c1ccc(Cl)cc1)NS(=O)(=O)c1ccc(S(=O)(=O)c2ccccc2)s1
inactive: A498 49.1 µM | A549 20.1 µM | ACHN 16.8 µM | CAKI-1 27.7 µM | HOP-62 41.2 µM | K562 10.9 µM | KM12 9.79 µM | NCI-H226 40.6 µM | NCI-H460 17.2 µM | OVCAR-5 37.6 µM | RXF 393 15.5 µM | SK-MEL-2 19.1 µM | SK-MEL-5 19.2 µM | SK-OV-3 71.9 µM | TK-10 26.7 µM | U-251 29 µM | UACC-257 18 µM

COc1cccc2c1OC1c3ccccc3OCC1C2 (stereo unspecified)
inactive: A498 > 100 µM | A549 > 100 µM | CAKI-1 > 100 µM | HOP-62 > 100 µM | K562 > 100 µM | KM12 > 100 µM | Malme-3M > 100 µM | NCI-H226 > 100 µM | OVCAR-5 > 100 µM | SK-MEL-2 > 100 µM | SK-MEL-5 35.7 µM | SK-OV-3 > 100 µM | TK-10 43.9 µM | U-251 > 100 µM | UACC-257 83.6 µM

O=C(Nc1ccc(Cl)cc1)NS(=O)(=O)c1coc2cc(F)ccc2c1=O
inactive: A549 > 100 µM | ACHN 16.4 µM | CAKI-1 > 100 µM | HOP-62 > 100 µM | Hs-578T > 100 µM | K562 19.7 µM | KM12 92 µM | Malme-3M > 100 µM | NCI-H226 > 100 µM | NCI-H460 > 100 µM | OVCAR-5 > 100 µM | RXF 393 > 100 µM | SK-MEL-2 52.6 µM | SK-MEL-5 > 100 µM | SK-OV-3 > 100 µM | TK-10 > 100 µM | U-251 62.2 µM | UACC-257 > 100 µM

CCC(C)[C@H](NC(=O)N[C@H](C)c1ccccc1)C(=O)OC (stereo partly specified)
inactive: A498 > 100 µM | A549 > 100 µM | ACHN > 100 µM | CAKI-1 > 100 µM | HOP-62 > 100 µM | K562 > 100 µM | KM12 > 100 µM | NCI-H226 > 100 µM | NCI-H460 > 100 µM | OVCAR-5 > 100 µM | SK-MEL-2 > 100 µM | SK-MEL-5 > 100 µM | SK-OV-3 > 100 µM | TK-10 > 100 µM | U-251 > 100 µM | UACC-257 > 100 µM
